≈ marks a conversion by molar mass, not a printed value. Read-outs that look alike come from different tables or passages of the source.
How the values were obtained:
[1] = Solubility of compound (Ic) in lipids, surfactants and pharmaceutical cosolvents; format: physicochemical
Description: The first step was to determine the solubility of compound(Ic) in an exhaustive series of lipids and other pharmaceutical cosolvents including vegetable oils, lipidic components, surfactants, hydrophilic components and phospholipids. The protocol of the solubility measurement is reported in the annex.

[2] = Oral bioavailability in preclinical studies in rats; details: rat, in vivo
Experimental: (§1) In the first preclinical studies performed in rats, the oral administration of an aqueous suspension of a drug substance of formula (I) in 0.5% methylcellulose/0.2% tween 80 (dose at 10 mg/kg) led to a very low bioavailability (3%). […] Furthermore, this excipient (medium chain triglyceride) is known for its digestibility and regulatory acceptability. […] However, in the First in Man study, an important food effect and interindividual variability were observed: the Maximum Tolerated Dose was around 100 mg in fasted conditions, with an interindividual variability of 50%, whereas in fed conditions the Maximum Tolerated Dose was divided by 10 with a decrease of the interindividual variability to 30%.

[3] = First in Man study (Maximum Tolerated Dose, interindividual variability, food effect); format: in vivo; details: Miglyol 812N solution
Experimental: as §1

[4] = Colloidal stability and self-emulsifying properties: drug recovered after incubation in simulated GI media and filtration; format: physicochemical; details: for Compound (Ic) recovered after filtration (2 μm) after incubation with GI media: diluted 1:50, 2 h at 37° C., theoretical concentration 200 μg/ml; for filtered fraction: aqueous solution of the drug, filter 0.45, 2 or 5 μm
Experimental: The preparation of the mixture of Miglyol 812 (liquid), Cremophor RH40 (semisolid at room temperature, solidification point 28° C.) and Capryol 90 (liquid) needed to heat the mixture at 60° C. to obtain a homogeneous solution. In addition, the heating of the mixture could have an impact on the chemical stability of Compound Ic. Taking into account these two issues, the proposition was made to replace Cremophor RH 40 by Cremophor EL (from same chemical family). Cremophor EL, polyoxyl 35 castor oil, is a liquid surfactant: No heating is needed for the manufacturing. Two tests were performed to evaluate the interest of Cremophor EL in comparison with Cremophor RH 40: design of the pseudoternary diagram for a surfactant/co surfactant ratio of 3:1 and test of the infinite dilutability. [drawing 15] • Miglyol 812N (Condea, Batch 508) • PEG 400—Batch 5056 • Phosal 50PG (Aventis Nattermann, Batch 228188) • Labrafil 1944CS (Gattefossé, Batch 15195) • Labrasol (Gattefossé, Batch 22478) • Gelucire 44/14 (Gattefossé, Batch 14236) Microemulsions (Cremophor RH40 or EL, Capryol 90, Miglyol 812N) The weighed drug (50 mg) was dispersed in the excipient (up to 5 g), and then maintained under mechanical stirring until dissolution. […] The mass was poured in a suppository mould and kept refrigerated overnight. For the stability studies, the melted mass was poured into hard gelatine capsule (size 1) and kept refrigerated overnight. The gelatine shell was then removed. [drawing 17] The following simulated media were selected for the present experiment: • Gastric medium USP, pH 1.2 • Fasted intestinal medium, pH 6.8 (ref. Dressman et al., Pharm. Res., 1998)
Fed intestinal medium, pH 5 (ref. Dressman et al., Pharm. Res., 1998)
All Compound (Ic) formulations (400 mg) were diluted 1:50 in the gastric, fasted intestinal or fed intestinal medium (20 ml), then incubated during 2 hours at 37° C. under mechanical stirring (300 rpm). The drug concentration was determined by HPLC before and after filtration (0.2 or 2 μm).
The aim of this study was to evaluate the colloidal stability and the self-emulsifying properties of the emulsion/microemulsion/micellar solution of the (Ic) formulation after incubation in the GI media. Thus, the sample was filtered onto 2 μm (able to retain oil droplets >2 μm, as well as drug crystals >2 μm) then dosed by HPLC. The filter size (2 μm) has been chosen after a screening with different filter sizes (0.45, 2 and 5 μm) tested on the aqueous solution of the drug. […] In summary, the filtered fraction was approximately 1% in the gastric medium, 2% in the fasted intestinal medium, 4.5-5.5% in the fed intestinal medium.

Structure (SMILES): CS(=O)(=O)C(=C1CN(C(c2ccc(Cl)cc2)c2ccc(Cl)cc2)C1)c1cc(F)cc(F)c1 [Compound (Ic)]
- solubility ([1]; aqueous with cosolvent or surfactant or cyclodextrin, in Cremophor RH40 (POE hydrogenated castor oil), read-out: solubility): 80.6 mg/mL (≈ 163 mM)
- solubility ([1]; aqueous with cosolvent or surfactant or cyclodextrin, in HP β Cyclodextrin, read-out: solubility): 0.05 mg/mL (≈ 0.101 mM)
- solubility ([1]; aqueous with cosolvent or surfactant or cyclodextrin, in Span 20 (Sorbitan monolaurate), read-out: solubility): 31.6 mg/mL (≈ 63.9 mM)
- solubility ([1]; aqueous with cosolvent or surfactant or cyclodextrin, in Span 85 (Sorbitan trioleate), read-out: solubility): 92 mg/mL (≈ 186 mM)
- solubility ([1]; aqueous with cosolvent or surfactant or cyclodextrin, in Tween 80 (POE monooleate), read-out: solubility): 50.6 mg/mL (≈ 102 mM)
- solubility ([1]; in Brij 96 (POE oleyl ether)): 85.7 mg/g
- solubility ([1]; in Capryol 90 (Polyethyleneglycol monocaprylate)): 56.6 mg/g
- solubility ([1]; in Castor oil): 16.1 mg/g
- solubility ([1]; in Coconut oil): 18.6 mg/g
- solubility ([1]; in Cremophor RH 40 (Polyoxyl 40 hydrogenated castor oil)): 80.6 mg/g
- solubility ([1]; in Crossential LN 75 (Linolenic acid)): 45.4 mg/g
- solubility ([1]; in Crossential O94 (Oleic acid)): 19.6 mg/g
- solubility ([1]; in Edenor C8 98-100 (Caprylic acid)): 75.5 mg/g
- solubility ([1]; in Gelucire 44/14 (lauroyl macrogol-32 glycerides)): 90.1 mg/g
- solubility ([1]; in Gelucire 50/13 (stearoyl macrogol-32 glycerides)): 78.5 mg/g
- solubility ([1]; in Labrafil M 1944 CS (Oleic Macrogol-6 glycerides)): 30.3 mg/g
- solubility ([1]; in Labrasol (Caprylocaproyl macrogol-8 glycerides)): 111.8 mg/g
- solubility ([1]; in Lauroglycol (PG monolaurate)): 28.5 mg/g
- solubility ([1]; in Miglyol 812 (Caprylic/capric triglycerides)): 37.4 mg/g
- solubility ([1]; in Myrj 45 (POE stearate)): 86.9 mg/g
- solubility ([1]; in Myvacet 9-45 (Distilled acetylated monoglycerides)): 54.8 mg/g
- solubility ([1]; in Neobee M 20 (PG dicaprylate/dicaprate)): 47.7 mg/g
- solubility ([1]; in Olive oil): 10.9 mg/g
- solubility ([1]; in PEG 1500 (polyethylene glycol 1500)): <10 mg/g
- solubility ([1]; in Phosal 40 MD (Phosphatidylcholine 38 ± 1.5% in glyceryl stearate, soya oil and linoleic acid ethylester)): 12.5 mg/g
- solubility ([1]; in Phosal 50 PG (Phosphatidylcholine ≧ 50% in propylene glycol)): 11.7 mg/g
- solubility ([1]; in Phosal 50 PG (Phosphatidylcholine ≧ 50% in propylene glycol), listed as Compound Ic): 11.5 mg/g
- solubility ([1]; in Phosal 53 MCT (Phosphatidylcholine 56 ± 3% in caprylic/capric triglycerides, alcohol, glyceryl stearate, oleic acid and ascorbyl palmitate)): 25.8 mg/g
- solubility ([1]; in Phosal 75 SA (Phosphatidylcholine 75 ± 3% in alcohol, safflower oil, glyceryl stearate, coconut oil and ascorbyl palmitate)): <10 mg/g
- solubility ([1]; in Phospholipon 90 (Phosphatidylcholine 93%)): 40 mg/g
- solubility ([1]; in Safflower oil): 14.8 mg/g
- solubility ([1]; in Sesame oil): 10.9 mg/g
- solubility ([1]; in VitaminE TPGS (d-α-tocopheryl polyethylene glycol 1000 succinate)): 100 mg/g
- solubility ([1]; oil or lipid, in Imwitor 742 (Glyceryl mono-dicaprylate/caprate), read-out: solubility): 31.2 mg/mL (≈ 63.1 mM)
- solubility ([1]; oil or lipid, in Imwitor 988 (Glyceryl mono-dicaprylate), read-out: solubility): 41.2 mg/mL (≈ 83.3 mM)
- solubility ([1]; oil or lipid, in Labrafil M1944 CS (oleyl macrogol-6-glycerides), read-out: solubility): 30.3 mg/mL (≈ 61.3 mM)
- solubility ([1]; oil or lipid, in Miglyol 812 (caprylic/capric triglyceride), read-out: solubility): 35.9 mg/mL (≈ 72.6 mM)
- solubility ([1]; oil or lipid, in Peanut oil, read-out: solubility): 7.2 mg/mL (≈ 14.6 mM)
- solubility ([1]; oil or lipid, in Soyabean oil, read-out: solubility): 31.8 mg/mL (≈ 64.3 mM)
- solubility ([1]; organic solvent or mixture, in Ethanol, read-out: solubility): 5.8 mg/mL (≈ 11.7 mM)
- solubility ([1]; organic solvent or mixture, in PEG 400 (polyethylene glycol 400), read-out: solubility): 78.1 mg/mL (≈ 158 mM)
- solubility ([1]; organic solvent or mixture, in Transcutol (Diethylene glycol monoethyl ether), read-out: solubility): 89.8 mg/mL (≈ 182 mM)
- bioavailability ([2]; aqueous suspension in 0.5% methylcellulose/0.2% tween 80, dose 10 mg/kg): 3%
- bioavailability ([2]; solution of 25 mg/mL in Miglyol 812N, dose 1 mg/kg): 13%
- bioavailability ([2]; solution of 25 mg/mL in Miglyol 812N, dose 10 mg/kg): 37%
- Maximum Tolerated Dose ([3]; fasted conditions): around 100 mg
- interindividual variability ([3]; fasted conditions): 50%
- Maximum Tolerated Dose relative to fasted conditions ([3]; fed conditions): divided by 10
- interindividual variability ([3]; fed conditions): 30%
- Compound (Ic) recovered after filtration (2 μm) after incubation with GI media ([4]; Fasted intestinal medium pH 6.8): 4.2 µg/mL
- Compound (Ic) recovered after filtration (2 μm) after incubation with GI media ([4]; Fed intestinal medium pH 5): 8.8 µg/mL
- Compound (Ic) recovered after filtration (2 μm) after incubation with GI media ([4]; Gastric medium): 1.9 µg/mL
- filtered fraction ([4]; fasted intestinal medium): ~2%
- filtered fraction ([4]; fed intestinal medium): 4.5-5.5%
- filtered fraction ([4]; gastric medium): approximately 1%
